Data as given in patent US9023998B2, “Near infrared fluorogen and fluorescent activating proteins for in vivo imaging and live-cell biosensing” (Carnegie Mellon University, priority 2013, dated 2015).

Tests used:
dL9.2 (SEQ. ID. NO. 2) = assay: Binding/activation of fluorogen by FAP dL9.2
From the text: A precursor FAP designated dL9 (SEQ. ID. NO. 1) was designed using the coding sequence of the light-chain from HL9-MG, a scFv originally isolated for binding and fluorescence activation of malachite green-based fluorogenic dyes (Szent-Gyorgyi, et al. 2008, incorporated herein by reference). This FAP was assembled as a tandem dimer of light chains by attaching a glycine-serine linker and a codon-optimized copy of the light chain gene to the original light chain via PCR. […] Mutagenesis and library generation by electroporation was performed in a previously described manner (Chao, et al., Isolating and engineering human antibodies using yeast surface display, Nature Protocols, vol. 1, No. 2, pp. 755-768 (2006)), but screening employed the protein secretion vector pPNL9, rather than the surface display vector pPNL6: Individual S. cerevisiae expressing FAP mutants were incubated with cell-permeant fluorogen MG-ester and the brightest activators were cloned via flow cytometry. Clones were induced for FAP production in tryptone-based protein secretion media (Szent-Gyorgyi, et al. 2008) and media was screened for activation of MG-ester after five days of induction at 20° C. This screen yielded dL9.2 (SEQ. ID. NO. 2): a bright, stable FAP amenable to high levels of expression. […]

[1] = tested on: S. cerevisiae expressing mL9.3 or mL9.5 surface-tethered; assay: Confocal imaging of yeast with surface-tethered FAPs; format: cell-based; settings: 100 nM fluorogen, excitation 641 nm, emission 794/160
From the text: Plasmids pPNL6-mL9.3 and pPNL6-mL9.5 for yeast cell surface display were produced by PCR amplification of mL9.3 (SEQ. ID. NO. 23) and mL9.5 (SEQ. ID. NO. 24) from pPNL6-dL9.2 and pPNL6-dL9.5, respectively, using primers pCTCON2F (CGACGATTGAAGGTAGATACCCATACGACGTTCCAGACTACGCTCTGCAG) (SEQ. ID. NO. 29) and p6 mL9XRv (TCTCGATGCGGCCGCTTAAGACAAAACAGTAACTTTAGTACCACC) (SEQ. ID. NO. 30). Amplicons were digested with NheI and NotI prior to ligation into a like-digested pPNL6 vector backbone. Ligated plasmids were transformed into E. coli (NEB 10β) by heat-shock, and plasmids from single colonies were sequenced to verify identity. Upon verification, purified stocks of each plasmid were introduced into S. cerevisiae strain JAR200 via electroporation. Transformed cells were induced in the manner described in Szent-Gyorgyi, et al. 2008 for 96 hours prior to imaging. Cells were adhered to concanavalin A-coated glass-bottom dishes (MatTek Corporation) for 10 minutes at room temperature. […] Images of fluorescence (FIG. 12, NIR:794/160) were obtained by excitation with a 641 nm laser, and emission was collected through a 794/160 bandpass filter (Semrock) by an iXon3 EMCCD (DU897 BV). […]

| Compound | Binding and fluorescence activation by dL9.2 (dL9.2 (SEQ. ID. NO. 2)) | NIR fluorescence of fluorogen alone in non-expressing yeast [1] |
| --- | --- | --- |
| CN(C)c1ccc(/C=C/C(=C2C=CC(=[N+](C)C)C=C2)c2ccc(N(C)C)cc2)cc1 [SKC602, (E)-N-(4-(1,3-bis(4-(dimethylamino)phenyl)allylidene)cyclohexa-2,5-dien-1-ylidene)-N-methylmethanaminium] | bind and activate fluorescence | do not cause NIR fluorescence in the absence of cognate FAP |
| CN(C)c1ccc(C(/C=C/c2ccc(N(C)CCCCC(=O)NC(CCS(=O)(=O)O)C(=O)O)cc2)=C2C=CC(=[N+](C)C)C=C2)cc1 (stereo not shown) [SKC728] | bind | do not cause NIR fluorescence in the absence of cognate FAP |
